# Experimental data taken from publication PMC10779535, “Design and Synthesis of D3R Bitopic Ligands with Flexible Secondary Binding Fragments: Radioligand Binding and Computational Chemistry Studies” (Molecules, 2023).
# Where two headings read alike, the source gives them in different places.
# Assays:
# human D2 = target: T1, human D2 (Homo sapiens, UniProt P14416); test: D2R radioligand binding assay ([125I]IABN, HEK cells); conditions: human D2 expressed in HEK cells, [125I]IABN radioligand, at least three experiments, HCl salts; read-out: Ki ± SEM D2R
# T1 construct: expressed in transfected cells
# Method: (§1) The receptor binding assay for the D2R and the D3R and the β-arrestin recruitment assay for the D3R were performed by following the previously reported methods.
# D3R [1] = target: T2, D3R (Homo sapiens, UniProt P35462); test: D3R radioligand binding assay ([125I]IABN, HEK cells); design: expressed in transfected cells; conditions: for Ki: human D3 expressed in HEK cells, [125I]IABN radioligand, at least three experiments, HCl salts, read-out: Ki ± SEM D3R; for D2R/D3R Ratio: (Ki for D2R)/(Ki for D3R), D3R versus D2R selectivity (fold)
# Method: as §1
# D3R [2] = target: T2, D3R; test: β-arrestin competition (recruitment) assay against dopamine; format: cell-based; conditions: competition with dopamine (30 nM) for the D3R, at least three experiments; read-out: β-Arrestin Assay IC50 ± SEM
# Method: Compounds having a longer aliphatic linker ((R,S)-trans-2b–d) have a similar IC50 value in this assay. As expected, the IC50 value of β-arrestin assay parallels the Ki value in the D3R binding assay. It is of interest to note that the potency of (R,S)-trans-2a in the β-arrestin assay is higher than its potency in the in vitro binding assay for the D3R.
# as §1
# D3R [3] = target: T2, D3R; conditions: cited from earlier work; for Ki: read-out: D3R affinity
# D2R = conditions: cited from earlier work
# D3R [4] = target: T2, D3R; design: method as in PMID 33918451; conditions: MDS, Fallypride; cited from earlier work
# [5] = Figure 1, PET radiotracers, read-out: D2R affinity
# T2 sequence (P35462 whole entry): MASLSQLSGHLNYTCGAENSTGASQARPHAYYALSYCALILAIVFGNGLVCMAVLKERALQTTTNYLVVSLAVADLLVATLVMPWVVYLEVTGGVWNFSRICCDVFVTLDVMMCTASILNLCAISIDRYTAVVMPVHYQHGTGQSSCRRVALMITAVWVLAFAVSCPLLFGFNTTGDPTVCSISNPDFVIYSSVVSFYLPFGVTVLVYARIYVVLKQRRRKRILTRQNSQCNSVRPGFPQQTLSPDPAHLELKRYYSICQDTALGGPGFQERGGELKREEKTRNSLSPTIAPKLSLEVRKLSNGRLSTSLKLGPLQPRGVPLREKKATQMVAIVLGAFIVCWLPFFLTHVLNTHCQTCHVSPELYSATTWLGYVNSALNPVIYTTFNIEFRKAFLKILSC
# T1 sequence (P14416 whole entry): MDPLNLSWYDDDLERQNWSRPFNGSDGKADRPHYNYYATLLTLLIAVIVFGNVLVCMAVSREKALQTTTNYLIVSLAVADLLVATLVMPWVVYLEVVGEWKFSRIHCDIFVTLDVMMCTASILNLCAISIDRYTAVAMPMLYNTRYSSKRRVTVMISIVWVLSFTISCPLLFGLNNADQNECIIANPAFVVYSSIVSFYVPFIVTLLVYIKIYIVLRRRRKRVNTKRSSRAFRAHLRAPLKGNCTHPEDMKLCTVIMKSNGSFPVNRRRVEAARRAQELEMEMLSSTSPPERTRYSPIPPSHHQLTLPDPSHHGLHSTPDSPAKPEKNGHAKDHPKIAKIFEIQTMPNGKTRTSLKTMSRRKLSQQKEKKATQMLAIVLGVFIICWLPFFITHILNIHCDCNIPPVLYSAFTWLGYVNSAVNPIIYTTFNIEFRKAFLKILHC
Ki (human D2) [nM],Ki (D3R [1]) [nM],IC50 (D3R [2]) [nM],D2R/D3R Ratio (D3R [1]),Structure (SMILES),also measured
9600 ± 2360,1660 ± 433,> 1000,–,"C=CCN1C[C@H](OC(=O)NCCCCCCCCCC)C[C@@H]1CNC(=O)c1cc(CCCF)cc(OC)c1OC [(R,R)-cis-2d, (3R,5R)-1-allyl-5-((5-(3-fluoropropyl)-2,3-dimethoxybenzamido)methyl)pyrrolidin-3-yl decylcarbamate]",–
3.9 ± 0.4,0.6 ± 0.1,–,6.2,"C=CCN1C[C@H](OC(=O)NCCCCCCc2cccs2)C[C@H]1CNC(=O)c1cc(CCCF)cc(OC)c1OC [(R,S)-trans-2h, (3R,5S)-1-allyl-5-((5-(3-fluoropropyl)-2,3-dimethoxybenzamido)methyl)pyrrolidin-3-yl (6-(thiophen-2-yl)hexyl)carbamate]",–
10.5 ± 2,2.1 ± 0.1,–,5.0,"C=CCN1C[C@H](OC(=O)NCCCCCCCCc2ccsc2)C[C@H]1CNC(=O)c1cc(CCCF)cc(OC)c1OC [(R,S)-trans-2j, (3R,5S)-1-allyl-5-((5-(3-fluoropropyl)-2,3-dimethoxybenzamido)methyl)pyrrolidin-3-yl (8-(thiophen-3-yl)octyl)carbamate]",–
3.7 ± 0.2,0.7 ± 0.1,–,5.6,"C=CCN1C[C@H](OC(=O)NCCCCCCCCc2cccs2)C[C@H]1CNC(=O)c1cc(CCCF)cc(OC)c1OC [(R,S)-trans-2i, (3R,5S)-1-allyl-5-((5-(3-fluoropropyl)-2,3-dimethoxybenzamido)methyl)pyrrolidin-3-yl (8-(thiophen-2-yl)octyl)carbamate]",–
–,–,–,–,CCN1CCC[C@H]1CNC(=O)c1cc(Br)cc(OC)c1O[11CH3] [[^11C]FLB 457],"D2R/D3R (D3R [3]; Figure 1, PET radiotracers): 1.294; Ki (D3R [3]; Figure 1, PET radiotracers): 0.017 nM; Ki (D2R; [5]): 0.022 nM"
35.6 ± 8.1,2.8 ± 0.5,21.2 ± 9.8,–,"C=CCN1C[C@H](OC(=O)NCCCCCCCCCC)C[C@H]1CNC(=O)c1cc(CCCF)cc(OC)c1OC [(R,S)-trans-2d, (3R,5S)-1-allyl-5-((5-(3-fluoropropyl)-2,3-dimethoxybenzamido)methyl)pyrrolidin-3-yl decylcarbamate]",–
–,–,–,–,CC[11CH2]N1CCO[C@@H]2c3cc(O)ccc3CC[C@H]21 [[^11C]-(+)-PHNO],"Ki (D2R; Figure 1, printed with superscript H, read-out: ^HD2R affinity): 0.45 nM"
9 ± 0.3,3.7 ± 0.8,–,2.4,"C#CCOCCOCCNC(=O)O[C@@H]1C[C@@H](CNC(=O)c2cc(CCCF)cc(OC)c2OC)N(CC=C)C1 [(R,S)-trans-2g, (3R,5S)-1-allyl-5-((5-(3-fluoropropyl)-2,3-dimethoxybenzamido)methyl)pyrrolidin-3-yl (2-(2-(prop-2-yn-1-yloxy)ethoxy)ethyl)carbamate]",–
–,–,–,–,CCN(CCCCNC(=O)c1cc2ccccc2[nH]1)CCNC(=O)c1cc(Br)cc(OC)c1OC [HY-2-93],"D3R/D2R, D3R versus D2R selectivity (fold) (D3R [3]; HY-2-93): 180; Ki (D3R [3]; HY-2-93): 0.8 nM"
1470 ± 166,2420 ± 975,–,0.6,"C=CCN1C[C@@H](OC(=O)NCCCCCCCCc2cccs2)C[C@@H]1CNC(=O)c1cc(CCCF)cc(OC)c1OC [(S,R)-trans-2i, (3S,5R)-1-allyl-5-((5-(3-fluoropropyl)-2,3-dimethoxybenzamido)methyl)pyrrolidin-3-yl (8-(thiophen-2-yl)octyl)carbamate]",–
–,–,–,–,"CCN1CCC[C@H]1CNC(=O)c1c(O)c(Cl)cc(Cl)c1OC [[^11C]Raclopride, Raclopride]","D2R/D3R (D3R [3]; Figure 1, PET radiotracers): 0.514; Ki (D3R [3]; Figure 1, PET radiotracers): 3.5 nM; Ki (D2R; [5]): 1.8 nM"
–,–,–,–,CCCN(CCC1(O)CC(NC(=O)c2ccc3ccccc3c2)C1)C1CC1c1ccc(Cl)cc1 (stereo not drawn) [CJ-1882],Ki (D3R [3]; CJ-1882): 2.8 nM
68 ± 12,148 ± 37,–,–,"C=CCN1C[C@@H](OC(=O)NCCCCCCCCc2cccs2)C[C@H]1CNC(=O)c1cc(CCCF)cc(OC)c1OC [(S,S)-cis-2i, (3S,5S)-1-allyl-5-((5-(3-fluoropropyl)-2,3-dimethoxybenzamido)methyl)pyrrolidin-3-yl (8-(thiophen-2-yl)octyl)carbamate]",–
15.9 ± 3.3,3.4 ± 0.8,27.8 ± 21.1,4.7,"C=CCN1C[C@H](OC(=O)NCCCCCCCC)C[C@H]1CNC(=O)c1cc(CCCF)cc(OC)c1OC [(R,S)-trans-2c, (3R,5S)-1-allyl-5-((5-(3-fluoropropyl)-2,3-dimethoxybenzamido)methyl)pyrrolidin-3-yl octylcarbamate]",–
11.5 ± 2.6,5.3 ± 0.8,–,2.2,"C=CCN1C[C@H](OC(=O)NCCOCCOCCOCCOC)C[C@H]1CNC(=O)c1cc(CCCF)cc(OC)c1OC [(R,S)-trans-2f, (3R,5S)-1-allyl-5-((5-(3-fluoropropyl)-2,3-dimethoxybenzamido)methyl)pyrrolidin-3-yl (2,5,8,11-tetraoxatridecan-13-yl)carbamate]",–
–,–,–,–,C=CCN1CCC[C@H]1CNC(=O)c1cc(CCCF)cc(OC)c1OC [Fallypride],Ki (D2R; [5]): 0.02 nM; Distance to D3R ASP110^3.32 (D3R [4]): 3.17 ± 0.21 Å
164 ± 29,282 ± 69,608 ± 231,–,"C=CCN1C[C@@H](OC(=O)NCCCCCCCCCC)C[C@H]1CNC(=O)c1cc(CCCF)cc(OC)c1OC [(S,S)-cis-2d, (3S,5S)-1-allyl-5-((5-(3-fluoropropyl)-2,3-dimethoxybenzamido)methyl)pyrrolidin-3-yl decylcarbamate]",–
4.8 ± 0.5,2.6 ± 0.3,0.8 ± 0.5,1.8,"C=CCN1C[C@H](OC(=O)NCCCC)C[C@H]1CNC(=O)c1cc(CCCF)cc(OC)c1OC [(R,S)-trans-2a, (3R,5S)-1-allyl-5-((5-(3-fluoropropyl)-2,3-dimethoxybenzamido)methyl)pyrrolidin-3-yl butylcarbamate]",–
2190 ± 235,722 ± 234,–,3.0,"C=CCN1C[C@H](OC(=O)NCCCCCCCCc2cccs2)C[C@@H]1CNC(=O)c1cc(CCCF)cc(OC)c1OC [(R,R)-cis-2i, (3R,5R)-1-allyl-5-((5-(3-fluoropropyl)-2,3-dimethoxybenzamido)methyl)pyrrolidin-3-yl (8-(thiophen-2-yl)octyl)carbamate]",–
5.5 ± 1,1.6 ± 0.4,7.8 ± 5.9,3.4,"C=CCN1C[C@H](OC(=O)NCCCCCC)C[C@H]1CNC(=O)c1cc(CCCF)cc(OC)c1OC [(R,S)-trans-2b, (3R,5S)-1-allyl-5-((5-(3-fluoropropyl)-2,3-dimethoxybenzamido)methyl)pyrrolidin-3-yl hexylcarbamate]",–
1940 ± 380,2630 ± 815,> 1000,0.7,"C=CCN1C[C@@H](OC(=O)NCCCCCCCCCC)C[C@@H]1CNC(=O)c1cc(CCCF)cc(OC)c1OC [(S,R)-trans-2d, (3S,5R)-1-allyl-5-((5-(3-fluoropropyl)-2,3-dimethoxybenzamido)methyl)pyrrolidin-3-yl decylcarbamate]",–
9.2 ± 0.8,4.1 ± 0.6,–,2.2,"C=CCN1C[C@H](OC(=O)NCCOCCOCCOC)C[C@H]1CNC(=O)c1cc(CCCF)cc(OC)c1OC [(R,S)-trans-2e, (3R,5S)-1-allyl-5-((5-(3-fluoropropyl)-2,3-dimethoxybenzamido)methyl)pyrrolidin-3-yl (2-(2-(2-methoxyethoxy)ethoxy)ethyl)carbamate]",–
